Reference: patent publication US20080200448A1, “New Pyridine Analogues VIII 518” (ASTRAZENECA AB, priority 2007, published 2008)

Biological target: T1, P2Y12 receptor (Homo sapiens, UniProt Q9H244)
T1 construct: expressed in transfected cells; host or cells: CHO cells (membrane preparation)
Test: Functional inhibition of 2-Me-S-ADP induced P2Y12 signalling (35S-GTPγS binding, cell membranes)
Assay type: biochemical
Conditions: 35S-GTPγS assay, membranes, EC80 concentration of 2-methyl-thio-adenosine diphosphate, 30° C. for 45 min; read-out: GTPγS (IC50 μM)
In short: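 Membranes (5 μg) from P2Y12-transfected CHO cells in pH 7.4 HEPES buffer with 10 μM GDP and saponin were stimulated with an EC80 of 2-methyl-thio-ADP plus compound and ^35S-GTPγS for 45 min at 30° C. Filter-retained ^35S-GTPγS was counted, normalised between agonist and no-agonist activity, and IC50 taken from a four-parameter fit.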

T1 sequence (Q9H244 whole entry): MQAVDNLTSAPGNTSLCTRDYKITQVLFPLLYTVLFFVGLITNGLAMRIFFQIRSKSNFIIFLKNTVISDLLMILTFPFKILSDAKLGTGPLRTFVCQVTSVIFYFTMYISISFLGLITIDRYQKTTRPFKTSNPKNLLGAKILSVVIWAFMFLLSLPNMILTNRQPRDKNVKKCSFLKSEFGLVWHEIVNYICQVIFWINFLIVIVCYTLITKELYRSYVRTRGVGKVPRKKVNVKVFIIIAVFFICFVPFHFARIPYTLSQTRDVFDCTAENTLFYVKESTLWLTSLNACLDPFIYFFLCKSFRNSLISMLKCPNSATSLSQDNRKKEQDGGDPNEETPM

| IC50 [µM] | SMILES |
| --- | --- |
| 0.02 | CCOC(=O)c1cc(C#N)c(N2CCC(C(=O)NS(=O)(=O)Cc3ccc(F)cc3F)CC2)nc1CN1CCCCC1=O [Example 67, Ethyl 5-cyano-6-(4-{[(2,4-difluorobenzyl)sulfonyl]carbamoyl}piperidin-1-yl)-2-[(2-oxopiperidin-1-yl)methyl]nicotinate] |
| 0.376 | CCOC(=O)c1cc(C#N)c(N2CCC(C(=O)NS(=O)(=O)Cc3ccc(C(C)(C)C)cc3)CC2)nc1CN1CCCCC1=O [Example 103, Ethyl 6-(4-{[(4-tert-butylbenzyl)sulfonyl]carbamoyl}piperidin-1-yl)-5-cyano-2-[(2-oxopiperidin-1-yl)methyl]nicotinate] |
| 0.025 | CCOC(=O)c1cc(C#N)c(N2CCC(C(=O)NS(=O)(=O)Cc3ccccc3)CC2)nc1OCC(=O)O [Example 24, {[6-{4-[(Benzylsulfonyl)carbamoyl]piperidin-1-yl}-5-cyano-3-(ethoxycarbonyl)pyridin-2-yl]oxy}acetic acid] |
| 0.072 | CCOC(=O)c1cc(C#N)c(N2CCC(C(=O)NS(=O)(=O)Cc3ccccc3)CC2)nc1OCC(N)=O [Example 22, Ethyl 2-(2-amino-2-oxoethoxy)-6-{4-[(benzylsulfonyl)carbamoyl]piperidin-1-yl}-5-cyanonicotinate] |
| 0.0081 | CCOC(=O)c1cc(C#N)c(N2CCC(C(=O)NS(=O)(=O)Cc3ccccc3)CC2)nc1SCC(=O)O [Example 26, {[6-{4-[(Benzylsulfonyl)carbamoyl]piperidin-1-yl}-5-cyano-3-(ethoxycarbonyl)pyridin-2-yl]thio}acetic acid] |
| 0.166 | CCOC(=O)c1cc(C#N)c(N2CCC(C(=O)NS(=O)(=O)Cc3ccc(SC(F)(F)F)cc3)CC2)nc1CN1CCCCC1=O [Example 101, Ethyl 5-cyano-2-[(2-oxopiperidin-1-yl)methyl]-6-{4-[({4-[(trifluoromethyl)thio]benzyl}sulfonyl)carbamoyl]piperidin-1-yl}nicotinate] |
| 0.012 | CCOC(=O)c1cc(C#N)c(N2CCC(C(=O)NS(=O)(=O)Cc3ccc(C)cc3)CC2)nc1CN1CCCC1=O [Example 42, Ethyl 5-cyano-6-(4-{[(4-methylbenzyl)sulfonyl]carbamoyl}piperidin-1-yl)-2-[(2-oxopyrrolidin-1-yl)methyl]nicotinate] |
| 1.05 | CCOC(=O)c1cc(C#N)c(N2CCC(C(=O)NS(=O)(=O)Cc3ccccc3)CC2)nc1CSCc1nccn1C [Example 116, Ethyl 6-{4-[(benzylsulfonyl)carbamoyl]piperidin-1-yl}-5-cyano-2-({[(1-methyl-1H-imidazol-2-yl)methyl]thio}methyl)nicotinate] |
| 0.011 | CCOC(=O)c1cc(C#N)c(N2CCC(C(=O)NS(=O)(=O)Cc3ccc(Cl)cc3)CC2)nc1CN1CCCC1=O [Example 39, Ethyl 6-(4-{[(4-chlorobenzyl)sulfonyl]carbamoyl}piperidin-1-yl)-5-cyano-2-[(2-oxopyrrolidin-1-yl)methyl]nicotinate] |
| 0.02 | CC(C)OC(=O)c1cc(C#N)c(N2CCC(C(=O)NS(=O)(=O)Cc3ccc(C(F)(F)F)cc3)CC2)nc1CN1CCCC1=O [Example 50, Isopropyl 5-cyano-2-[(2-oxopyrrolidin-1-yl)methyl]-6-[4-({[4-(trifluoromethyl)benzyl]sulfonyl}carbamoyl)piperidin-1-yl]nicotinate] |
| 0.725 | CCOC(=O)c1cc(C#N)c(N2CCC(C(=O)NS(=O)(=O)CC3CCOCC3)CC2)nc1CN1CCCC1=O [Example 72, Ethyl 5-cyano-2-[(2-oxopyrrolidin-1-yl)methyl]-6-(4-{[(tetrahydro-2H-pyran-4-ylmethyl)sulfonyl]carbamoyl}piperidin-1-yl)nicotinate] |
| 0.164 | CCOC(=O)c1cc(C#N)c(N2CCC(C(=O)NS(=O)(=O)CC3CCC(C)CC3)CC2)nc1CN1CCCCC1=O (stereo not drawn) [Example 58, Ethyl 5-cyano-6-[4-({[(4-methylcyclohexyl)methyl]sulfonyl}carbamoyl)piperidin-1-yl]-2-[(2-oxopiperidin-1-yl)methyl]nicotinate] |
